Results taken from paper PMC9867241, “Antioxidant and Cytotoxic Activity of New Polyphenolic Derivatives of Quinazolin-4(3H)-one: Synthesis and In Vitro Activities Evaluation” (Pharmaceutics, 2022).
Values after ≈ are worked out from the molar mass of the structure shown.

What was measured:
[1] = ABTS˙+ radical scavenging assay
Description: The stock solutions (1 mg/mL) of the tested compounds and the controls were obtained, by dissolving the substances in dimethyl sulfoxide (DMSO). Using Jasco V-530, an UV-VIS spectrophotometer (Jasco International Co., Ltd., Tokyo, Japan), we performed the colorimetric determinations in low-volume single-use 10 mm width cuvettes.
The assays were performed in triplicate and the results are presented as averages for each assay.

[2] = Phosphomolybdate assay for total antioxidant capacity (TAC); design: concentration or dose not given beside the values; settings: for TAC, % of Activity of Trolox: relative to Trolox; for TAC, % of Activity of Ascorbic Acid: relative to ascorbic acid
Excerpt: Using the phosphomolybdate assay, we determined the total antioxidant capacity (TAC) of the tested compounds. We measured the solutions’ absorbances against a blank sample at λ = 695 nm, using a previously reported procedure by our group, based on initial literature reports. Using Equation (4), we calculated the TAC of 5a–d and 6a–d compounds.
At acidic pH, the tested compounds transfer one electron to Mo^6+ to reduce it to Mo^5+.

[3] = Reducing power (RP) assay; design: concentration or dose not given beside the values; settings: for RP, % of Activity of Trolox: relative to Trolox; for RP, % of Activity of Ascorbic Acid: relative to ascorbic acid
Description: Herein, the iron (III) is not free in the solution as it was in the FRAP assay and is complexed by cyanide ions. The evaluation of the reducing power (RP) was performed at a pH closer to neutral (pH = 6.6); this is different from the FRAP test, which is performed in an acidic environment. Against a blank sample, the absorbances were measured at λ = 700 nm. The followed protocol was based on the adaptation of previously reported protocols and was previously reported by our group. Using Equation (4), we calculated the reducing power of the 5a–d and 6a–d compounds as a percentage of the reference compounds activity.
The evaluated compounds can reduce ferricyanide to ferrocyanide, in the presence of ferric ions, resulting in the Perl’s Prussian which gives blue. The higher the percentage of reducing power, the higher was the absorbance that was measured due to a higher amount of colored complex resulting from the reaction.

[4] = Fe^2+ chelation assay (ferrozine competition)
Description: In the protocol used for evaluating the Fe^2+ chelating ability of the compounds, the absorbances of the solutions were determined at λ = 562 nm, against a blank sample. The method was adapted from the initial report of Benzie and Strain et al., which was previously reported by our group. Using Equation (5), we calculated the iron chelation capacities of the 5a–d and 6a–d compounds:(5) iron chelation (%)=control absorbance−sample absorbance/control absorbance×100
The chelating capacity of the tested compounds of Fe^2+ was evaluated based on their competition for Fe^2+ with ferrozine.

[5] = Cu^2+ chelation assay (murexide competition)
Excerpt: With murexide as a chromophoric chelator, we performed the protocol followed for the evaluation of Cu^2+ chelating activities of the compounds using an adaptation of the method presented by Cesari et al. and Wu et al.. Using Equation (6), we calculated the copper chelation capacities of the 5a–d and 6a–d compounds:(6) copper chelation (%)=(A485/A520)control−(A485/A520)sample/(A485/A520)control×100
The evaluation of the Cu^2+ chelation activity of compounds was made based on the competition for Cu^2+ with murexide. The chelating activity of compounds for the cupric ions found in the current assay is significant for the pyrogallol derivatives, being quite close to EDTA-Na2.

[6] = Molecular properties computed with SwissADME; settings: ratio of computed water solubilities
Excerpt: In order to obtain preliminary information regarding molecular properties which could influence the pharmacokinetics of the compounds, we obtained them using SwissADME [44]. The evaluated molecular properties were the topological polar surface area (TPSA), octanol–water partition coefficient expressed as Moriguchi’s LogP [46], water solubility and violations of the Lipinski’s rule of five.

Row | IC50 [1] | IC50 (ABTS˙^+ scavenging) [1] | SMILES | % of ABTS˙^+ Scavenging ([1]; 0.83 µg/mL) | % of ABTS˙^+ Scavenging ([1]; 1.67 µg/mL) | % of ABTS˙^+ Scavenging ([1]; 3.33 µg/mL) | % of ABTS˙^+ Scavenging ([1]; 4.99 µg/mL) | % of ABTS˙^+ Scavenging ([1]; 6.66 µg/mL) | % of ABTS˙^+ Scavenging ([1]; 9.99 µg/mL) | % of ABTS˙^+ Scavenging ([1]; 13.32 µg/mL) | TAC, % of Activity of Trolox [2] | TAC, % of Activity of Ascorbic Acid [2] | RP, % of Activity of Trolox [3] | RP, % of Activity of Ascorbic Acid [3] | Ferrous ions Chelation Capacity (%) ([4]; 17.70 µg/mL) | Ferrous ions Chelation Capacity (%) ([4]; 20.59 µg/mL) | Ferrous ions Chelation Capacity (%) ([4]; 29.41 µg/mL) | Ferrous ions Chelation Capacity (%) ([4]; 44.11 µg/mL) | Ferrous ions Chelation Capacity (%) ([4]; 58.82 µg/mL) | Ferrous ions Chelation Capacity (%) ([4]; 88.23 µg/mL) | Ferrous ions Chelation Capacity (%) ([4]; 117.64 µg/mL) | also measured
1 | 3.86 µM | 1.60 µg/mL (≈ 3.86 µM) | CCn1c(SCC(=O)NN=Cc2ccc(O)c(O)c2O)nc2ccccc2c1=O [Compound 5c, 2-((3-Ethyl-4-oxo-3,4-dihydroquinazolin-2-yl)thio)-N’-(2,3,4-trihydroxybenzylidene)acetohydrazide] | 39.05% | 52.25% | 72.57% | + (+ represents more than 95%) | + (+ represents more than 95%) | + (+ represents more than 95%) | + (+ represents more than 95%) | 163.49% | 84.73% | 72.75% | 49.93% | - (- represents less than 5%) | - (- represents less than 5%) | - (- represents less than 5%) | - (- represents less than 5%) | - (- represents less than 5%) | - (- represents less than 5%) | 20.27% | Ferrous ions Chelation Capacity (%) ([4]; 257.46 µg/mL): 65.75%; Ferrous ions Chelation Capacity (%) ([4]; 343.28 µg/mL): 89.24%; Cupric ions Chelation Capacity (%) ([5]; 3.36 µg/mL): 13.06%; Cupric ions Chelation Capacity (%) ([5]; 8.40 µg/mL): 23.23%; Cupric ions Chelation Capacity (%) ([5]; 16.80 µg/mL): 32.60%; times more soluble in water than 6b [6]: 24 times
2 | 8.7 µM | 4.13 µg/mL (≈ 8.7 µM) | CC(=NNC(=O)CSc1nc2ccccc2c(=O)n1Cc1ccccc1)c1ccc(O)cc1O [Compound 6b, 2-((3-Benzyl-4-oxo-3,4-dihydroquinazolin-2-yl)thio)-N’-(1-(2,4-dihydroxyphenyl)ethylidene)acetohydrazide] | 26.26% | 33.32% | 44.60% | 55.88% | 68.23% | 90.98% | + (+ represents more than 95%) | 101.03% | 52.36% | 29.01% | 19.91% | - (- represents less than 5%) | - (- represents less than 5%) | - (- represents less than 5%) | - (- represents less than 5%) | - (- represents less than 5%) | - (- represents less than 5%) | - (- represents less than 5%) | Ferrous ions Chelation Capacity (%) ([4]; 257.46 µg/mL): - (- represents less than 5%); Ferrous ions Chelation Capacity (%) ([4]; 343.28 µg/mL): - (- represents less than 5%); Cupric ions Chelation Capacity (%) ([5]; 3.36 µg/mL): 6.77%; Cupric ions Chelation Capacity (%) ([5]; 8.40 µg/mL): 17.17%; Cupric ions Chelation Capacity (%) ([5]; 16.80 µg/mL): 30.49%
3 | 9.84 µM | 4.06 µg/mL (≈ 9.84 µM) | CCn1c(SCC(=O)NN=C(C)c2ccc(O)cc2O)nc2ccccc2c1=O [Compound 6c, N’-(1-(2,4-dihydroxyphenyl)ethylidene)-2-((3-ethyl-4-oxo-3,4-dihydroquinazolin-2-yl)thio)acetohydrazide] | 29.08% | 34.73% | 43.19% | 54.47% | 68.58% | 91.60% | + (+ represents more than 95%) | 110.05% | 57.03% | 28.98% | 19.89% | - (- represents less than 5%) | - (- represents less than 5%) | - (- represents less than 5%) | - (- represents less than 5%) | - (- represents less than 5%) | - (- represents less than 5%) | - (- represents less than 5%) | Ferrous ions Chelation Capacity (%) ([4]; 257.46 µg/mL): - (- represents less than 5%); Ferrous ions Chelation Capacity (%) ([4]; 343.28 µg/mL): - (- represents less than 5%); Cupric ions Chelation Capacity (%) ([5]; 3.36 µg/mL): 7.47%; Cupric ions Chelation Capacity (%) ([5]; 8.40 µg/mL): 16.75%; Cupric ions Chelation Capacity (%) ([5]; 16.80 µg/mL): 26.72%
